Assay results published in patent publication US10239849B2 (Merck Sharp & Dohme Corp., priority 2015, dated 2019).

Legend:
[1] = target: T1, glutathione-S-transferase (GST) tagged LXRbeta LBD (ligand binding domain) (Homo sapiens, UniProt P55055); experiment: LanthaScreen TR-FRET Liver X Receptor Coactivator Assay, LXR beta-LBD; type: biochemical; settings: for Emax: read-out: LXR beta activity at max dose (%) (Emax); for EC50: potency (Inflection Point) of co-activator recruitment, TR-FRET, read-out: LXR beta IP
T1 construct: purchased Invitrogen pv4658.pps
T1 sequence (P55055 222-460 limits assumed): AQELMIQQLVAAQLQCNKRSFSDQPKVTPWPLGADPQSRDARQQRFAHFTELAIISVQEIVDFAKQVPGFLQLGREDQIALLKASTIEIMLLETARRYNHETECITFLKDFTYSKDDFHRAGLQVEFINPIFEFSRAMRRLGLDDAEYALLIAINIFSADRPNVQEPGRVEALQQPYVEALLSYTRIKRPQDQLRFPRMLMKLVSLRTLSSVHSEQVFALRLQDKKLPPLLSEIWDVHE
Description: (§1) While running the LanthaScreen™ TR-FRET Liver X Receptor Coactivator Assay, LXR alpha-LBD or LXR beta-LBD was added to ligand test compounds followed by addition of a mixture of a fluorescein-labelled coactivator peptide and terbium-conjugated anti-GST antibody. After an incubation period at room temperature, TR-FRET (time-resolved fluorescence resonance energy transfer) was measured using a filter-based instrument capable of TR-FRET, e.g. PerkinElmer Envision.

[2] = target: T2, glutathione-S-transferase (GST) tagged LXRalpha LBD (ligand binding domain) (Homo sapiens, UniProt Q13133); experiment: LanthaScreen TR-FRET Liver X Receptor Coactivator Assay, LXR alpha-LBD; type: biochemical; settings: for Emax: read-out: LXR alpha activity at max dose (%) (Emax); for EC50: potency (Inflection Point) of co-activator recruitment, TR-FRET, read-out: LXR alpha IP
T2 construct: purchased Invitrogen pv4655
T2 sequence (Q13133 209-447 limits assumed): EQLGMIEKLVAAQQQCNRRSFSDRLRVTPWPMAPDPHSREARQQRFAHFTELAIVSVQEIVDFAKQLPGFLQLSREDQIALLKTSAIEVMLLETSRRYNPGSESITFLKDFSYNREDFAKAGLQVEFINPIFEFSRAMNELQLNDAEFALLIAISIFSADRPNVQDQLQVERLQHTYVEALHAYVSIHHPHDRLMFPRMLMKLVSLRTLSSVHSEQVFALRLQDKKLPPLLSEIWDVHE
Description: as §1

[3] = efficacy in relation to reference dual agonist T1317

| Emax [1, 3] | EC50 [1] | Emax [2, 3] | EC50 [2] | LXR beta activity at max dose (%) (Emax) [1, 3] | LXR alpha activity at max dose (%) (Emax) [2, 3] | Compound |
| --- | --- | --- | --- | --- | --- | --- |
| 93% | 12 nM | 41% | 929 nM |  |  | CC(C)C(O)(C(=O)N1CCN(c2ncc(-c3cc(Cl)c(C(=O)N(C)C)c(Cl)c3)cc2C#N)CC1)C(F)(F)F (single isomer, unassigned) [Example 7-5, 2,6-dichloro-4-(5-cyano-6-{4-[2-hydroxy-3-methyl-2-(trifluoromethyl)butanoyl]piperazin-1-yl}pyridin-3-yl)-N,N-dimethylbenzamide] |
|  | 34 nM |  | 760 nM | 79% | 28% | CC(C)C(O)(C(=O)N1CCN(c2ncc(-c3cc(Cl)c(C(=O)N(C)C)c(Cl)c3)cc2C#N)CC1)C(F)(F)F (single isomer, unassigned) [Example 7-6, 2,6-dichloro-4-(5-cyano-6-{4-[2-hydroxy-3-methyl-2-(trifluoromethyl)butanoyl]piperazin-1-yl}pyridin-3-yl)-N,N-dimethylbenzamide] |
| 124% | 7 nM | 55% | 690 nM |  |  | CN(C)C(=O)c1ccc(-c2cnc(N3CCN(S(=O)(=O)c4c(Cl)cccc4Cl)CC3)c(C#N)c2)cc1Cl [Example 1-1, 2-chloro-4-(5-cyano-6-{4-[(2,6-dichlorophenyl)sulfonyl]piperazin-1-yl}pyridin-3-yl)-N,N-dimethylbenzamide] |
| 68% | 543 nM | 37% | 22500 nM |  |  | CN(C)C(=O)c1ccc(-c2cnc(N3CCN(S(=O)(=O)C4CC4)CC3)c(C#N)c2)cc1Cl [Example 1-2, 2-chloro-4-{5-cyano-6-[4-(cyclopropylsulfonyl)piperazin-1-yl]pyridin-3-yl}-N,N-dimethylbenzamide] |
| 93% | 200 nM | 52% | 10500 nM |  |  | CN(C)C(=O)c1ccc(-c2cnc(N3CCN(S(=O)(=O)C(F)F)CC3)c(C#N)c2)cc1Cl [Example 1-3, 2-chloro-4-(5-cyano-6-{4-[(difluoromethyl)sulfonyl]piperazin-1-yl}pyridin-3-yl)-N,N-dimethylbenzamide] |
| 81% | 279 nM | 44% | 49000 nM |  |  | CCC(C)S(=O)(=O)N1CCN(c2ncc(-c3ccc(C(=O)N(C)C)c(Cl)c3)cc2C#N)CC1 (centres unmarked) [Example 1-4, 2-chloro-4-(5-cyano-6-{4-[(1-methylpropyl)sulfonyl]piperazin-1-yl}pyridin-3-yl)-N,N-dimethylbenzamide] |
| 85% | 939 nM | 31% | 60500 nM |  |  | CN(C)C(=O)c1ccc(-c2cnc(N3CCN(S(=O)(=O)c4cccnc4)CC3)c(C#N)c2)cc1Cl [Example 1-5, 2-chloro-4-{5-cyano-6-[4-(pyridin-3-ylsulfonyl)piperazin-1-yl]pyridin-3-yl}-N,N-dimethylbenzamide] |
| 77% | 31 nM | 23% | 6840 nM |  |  | CN(C)C(=O)c1ccc(-c2cnc(N3CCN(S(=O)(=O)c4cccs4)CC3)c(C#N)c2)cc1Cl [Example 1-6, 2-chloro-4-{5-cyano-6-[4-(thiophen-2-ylsulfonyl)piperazin-1-yl]pyridin-3-yl}-N,N-dimethylbenzamide] |
| 79% | 337 nM | 39% | 14200 nM |  |  | CN(C)C(=O)c1ccc(-c2cnc(N3CCN(S(=O)(=O)C4CCCCC4)CC3)c(C#N)c2)cc1Cl [Example 1-7, 2-chloro-4-{5-cyano-6-[4-(cyclohexylsulfonyl)piperazin-1-yl]pyridin-3-yl}-N,N-dimethylbenzamide] |
| 89% | 17 nM | 34% | 12100 nM |  |  | CN(C)C(=O)c1ccc(-c2cnc(N3CCN(S(=O)(=O)c4ccccc4F)CC3)c(C#N)c2)cc1Cl [Example 1-8, 2-chloro-4-(5-cyano-6-{4-[(2-fluorophenyl)sulfonyl]piperazin-1-yl}pyridin-3-yl)-N,N-dimethylbenzamide] |
| 123% | 22 nM | 46% | 618 nM |  |  | CN(C)C(=O)c1ccc(-c2cnc(N3CCN(S(=O)(=O)c4ccccc4C#N)CC3)c(C#N)c2)cc1Cl [Example 1-9, 2-chloro-4-(5-cyano-6-{4-[(2-cyanophenyl)sulfonyl]piperazin-1-yl}pyridin-3-yl)-N,N-dimethylbenzamide] |
| 65% | 162 nM | 18% | 733 nM |  |  | CN(C)C(=O)c1ccc(-c2cnc(N3CCN(S(=O)(=O)Cc4ccccc4F)CC3)c(C#N)c2)cc1Cl [Example 1-10, 2-chloro-4-(5-cyano-6-{4-[(2-fluorobenzyl)sulfonyl]piperazin-1-yl}pyridin-3-yl)-N,N-dimethylbenzamide] |
| 108% | 8 nM | 51% | 3410 nM |  |  | CN(C)C(=O)c1ccc(-c2cnc(N3CCN(S(=O)(=O)c4ccccc4Cl)CC3)c(C#N)c2)cc1Cl [Example 1-11, 2-chloro-4-(6-{4-[(2-chlorophenyl)sulfonyl]piperazin-1-yl}-5-cyanopyridin-3-yl)-N,N-dimethylbenzamide] |
| 97% | 28 nM | 27% | 7400 nM |  |  | CN(C)C(=O)c1ccc(-c2cnc(N3CCN(S(=O)(=O)Cc4ccccc4Cl)CC3)c(C#N)c2)cc1Cl [Example 1-12, 2-chloro-4-(6-{4-[(2-chlorobenzyl)sulfonyl]piperazin-1-yl}-5-cyanopyridin-3-yl)-N,N-dimethylbenzamide] |
| 127% | 11 nM | 60% | 1000 nM |  |  | CN(C)C(=O)c1ccc(-c2cnc(N3CCN(S(=O)(=O)c4ccccc4C(F)(F)F)CC3)c(C#N)c2)cc1Cl [Example 1-13, 2-chloro-4-[5-cyano-6-(4-{[2-(trifluoromethyl)phenyl]sulfonyl}piperazin-1-yl)pyridin-3-yl]-N,N-dimethylbenzamide] |
| 99% | 20 nM | 37% | 1050 nM |  |  | CN(C)C(=O)c1ccc(-c2cnc(N3CCN(S(=O)(=O)c4ccccc4OC(F)(F)F)CC3)c(C#N)c2)cc1Cl [Example 1-14, 2-chloro-4-[5-cyano-6-(4-{[2-(trifluoromethoxy)phenyl]sulfonyl}piperazin-1-yl)pyridin-3-yl]-N,N-dimethylbenzamide] |
| 86% | 437 nM | 43% | 19500 nM |  |  | CC(C)S(=O)(=O)N1CCN(c2ncc(-c3ccc(C(=O)N(C)C)c(Cl)c3)cc2C#N)CC1 [Example 1-15, 2-chloro-4-(5-cyano-6-{4-[(1-methylethyl)sulfonyl]piperazin-1-yl}pyridin-3-yl)-N,N-dimethylbenzamide] |
| 69% | 144 nM | 63% | 50500 nM |  |  | CN(C)C(=O)c1ccc(-c2cnc(N3CCN(S(=O)(=O)c4ccccc4)CC3)c(C#N)c2)cc1Cl [Example 1-16, 2-chloro-4-{5-cyano-6-[4-(phenylsulfonyl)piperazin-1-yl]pyridin-3-yl}-N,N-dimethylbenzamide] |
| 98% | 43 nM | 36% | 4840 nM |  |  | CN(C)C(=O)c1ccc(-c2cnc(N3CCN(S(=O)(=O)c4c(F)cccc4F)CC3)c(C#N)c2)cc1Cl [Example 1-17, 2-chloro-4-(5-cyano-6-{4-[(2,6-difluorophenyl)sulfonyl]piperazin-1-yl}pyridin-3-yl)-N,N-dimethylbenzamide] |
| 126% | 151 nM | 62% | 1670 nM |  |  | CN(C)C(=O)c1ccc(-c2cnc(N3CCN(S(=O)(=O)c4c(Cl)cccc4C(F)(F)F)CC3)c(C#N)c2)cc1Cl [Example 1-18, 2-chloro-4-[6-(4-{[2-chloro-6-(trifluoromethyl)phenyl]sulfonyl}piperazin-1-yl)-5-cyanopyridin-3-yl]-N,N-dimethylbenzamide] |
| 40% | 212 nM | 23% | 8860 nM |  |  | CN(C)C(=O)c1ccc(-c2cnc(N3CCN(C(=O)c4c(F)cccc4F)CC3)c(C#N)c2)cc1Cl [Example 2-1, 2-chloro-4-(5-cyano-6-{4-[(2,6-difluorophenyl)carbonyl]piperazin-1-yl}pyridin-3-yl)-N,N-dimethylbenzamide] |
| 90% | 833 nM |  |  |  |  | CN(C)C(=O)c1ccc(-c2ccc(N3CCN(C(=O)c4c(F)cccc4F)CC3)c(Cl)c2)cc1Cl [Example 4-1, 3,3′-dichloro-4′-{4-[(2,6-difluorophenyl)carbonyl]piperazin-1-yl}-N,N-dimethylbiphenyl-4-carboxamide] |
